{"source": "patent US20120035444A1", "about": "“INTRAVITAL SAMPLE DEVICE FOR IN VIVO DRUG SCREENING” (NATIONAL TAIWAN UNIVERSITY, priority 2008, published 2012)", "test_system": "liver", "conditions": "feeding for 10 days (FIG. 8)", "source_text": "Two-photon microscopy was used to observe living organism. […] The multiphoton microscope is illustrated in FIG. 5. […] The SHG signal was collected in the backscattering geometry.\nWhen the liver was damaged, the function of hepatocytes would also be damaged. In the present invention, CCl4 was applied to simulate the reaction of hepatocyte when the liver was toxic."}
{"smiles": "ClC(Cl)(Cl)Cl", "note": "[CCl4]", "values": [{"measurement": "liver state after feeding CCl4", "value": "fibrosis"}]}
